The text below walks through data of ChEMBL document CHEMBL1130467, “Synthesis and antitumor activity of novel cyclopropapyrroloindole(CPI) derivatives bearing methoxycarbonyl and trifluoromethyl groups” (Bioorg Med Chem Lett, 1997).

SMILES strings stand for the structures. Converted amounts (≈) assume the structure as drawn.

Experiment [1] deals with Colon 26. The experiment is described as follows: Antitumor activity against colon 26 murine adenocarcinoma cells expressed as percent TGI (tumor growth inhibition) at 0.500 mg/kg i.v. compound dose. The class given is functional. The settings on record: Mus musculus, route intravenous, read-out: TGI.
The subject of experiment [2] is Colon 26. Nature of the experiment: Antitumor activity against colon 26 murine adenocarcinoma cells expressed as % body weight change at 0.250 mg/kg compound dose from day 7 to day 12. Format: functional, Mus musculus. The settings on record: dose 0.25 mg/kg.
Experiment [3] has as its system Colon 26. Nature of the experiment: Antitumor activity against colon 26 murine adenocarcinoma cells expressed as percent TGI (tumor growth inhibition) at 0.250 mg/kg i.v. compound dose. The class given is functional. The settings on record: Mus musculus, route intravenous, read-out: TGI.
Experiment [4] relates to Colon 26. Nature of the experiment: Antitumor activity against colon 26 murine adenocarcinoma cells expressed as % body weight change at 0.125 mg/kg compound dose from day 7 to day 12. Format: functional, Mus musculus.
Experiment [5] has as its system Colon 26. The experiment is described as follows: Antitumor activity against colon 26 murine adenocarcinoma cells expressed as percent TGI (tumor growth inhibition) at 0.125 mg/kg i.v. compound dose. Format: functional. The settings on record: Mus musculus, route intravenous, read-out: TGI.
The test system of experiment [6] is Colon 26. Nature of the experiment: Antitumor activity against colon 26 murine adenocarcinoma cells expressed as maximum dose within 10% body weight loss at 0.500 mg/kg i.v. compound dose. Format: functional, Mus musculus. The settings on record: dose 0.5 mg/kg; route intravenous.
The subject of a further experiment is HeLa. Nature of the experiment: Concentration required for 50% inhibition of human uterine Cervix Carcinoma cells (HeLaS3). The class given is functional, cell-based.
The test system of experiment [7] is Colon 26. The experiment is described as follows: Antitumor activity against colon 26 murine adenocarcinoma cells expressed as percent TGI 50 (tumor growth inhibition) at 0.500 mg/kg i.v. compound dose. The settings on record: dose 0.5 mg/kg; route intravenous. Format: functional, Mus musculus.
Experiment [8] has as its system Colon 26. Nature of the experiment: Antitumor activity against colon 26 murine adenocarcinoma cells expressed as % body weight change at 0.500 mg/kg compound dose from day 7 to day 12. The conditions noted are these: dose 0.5 mg/kg. The class given is functional, Mus musculus.
Experiment [9] concerns Colon 26. Nature of the experiment: Antitumor activity against colon 26 murine adenocarcinoma cells expressed as percent TGI (tumor growth inhibition) at 0.0625 mg/kg i.v. compound dose. The class given is functional. The settings on record: Mus musculus, route intravenous, read-out: TGI.
The test system of experiment [10] is Colon 26. Nature of the experiment: Antitumor activity against colon 26 murine adenocarcinoma cells expressed as % body weight change at 0.0625 mg/kg compound dose from day 7 to day 12. Format: functional, Mus musculus.
Experiment [11] in a line: Percent tumor growth (TGI) inhibition against S180 murine Sarcoma cells( inoculated s.c. into male ICR mice on day 0), as compared to that of untreated group at 0.25 mg/kg i.v. compound dose on day 1. Format: functional. The settings on record: Mus musculus, CCRF S-180, route intravenous, read-out: TGI.
Experiment [12] deals with Colon 26. Nature of the experiment: Antitumor activity against colon 26 murine adenocarcinoma cells expressed as percent TGI (tumor growth inhibition) at 0.177 mg/kg i.v. compound dose. Format: functional. The settings on record: Mus musculus, route intravenous, read-out: TGI.
Experiment [13] has as its system Colon 26. The experiment is described as follows: Antitumor activity against colon 26 murine adenocarcinoma cells expressed as % body weight change at 0.177 mg/kg i.v. compound dose from day 7 to day 12. The conditions noted are these: route intravenous. The class given is functional, Mus musculus.
The test system of experiment [14] is Colon 26. Nature of the experiment: Antitumor activity against colon 26 murine adenocarcinoma cells expressed as percent TGI (tumor growth inhibition) at 0.0313 mg/kg i.v. compound dose. Format: functional. The conditions noted are these: Mus musculus, route intravenous, read-out: TGI.
For experiment [15], the system named is Colon 26. Nature of the experiment: Antitumor activity against colon 26 murine adenocarcinoma cells expressed as percent TGI 50 (tumor growth inhibition) at 0.177 mg/kg i.v. compound dose. The settings on record: route intravenous. The class given is functional, Mus musculus.
The subject of experiment [16] is Colon 26. The experiment is described as follows: Antitumor activity against colon 26 murine adenocarcinoma cells expressed as % body weight change at 0.0313 mg/kg compound dose from day 7 to day 12. The class given is functional, Mus musculus.
Experiment [17] deals with Colon 26. Nature of the experiment: Antitumor activity against colon 26 murine adenocarcinoma cells expressed as maximum dose within 10% body weight loss at 0.177 mg/kg i.v. compound dose. Format: functional, Mus musculus. The conditions noted are these: route intravenous.
In experiment [18] the test system is P388. Nature of the experiment: Concentration required to inhibit p388 murine leukemia cells by 50%. The class given is functional, cell-based. The settings on record: Mus musculus.
Experiment [19] has as its system P388. Nature of the experiment: Percent increase in life span of p388 murine leukemia cells (inoculated i.p. on day 0) as compared to that of untreated group at 0.25 mg/kg i.p. compound dose on day 1; cured mice =2/2. The conditions noted are these: Mus musculus, P388, ip, route intraperitoneal. The class given is functional.
In experiment [20] the test system is P388. The experiment is described as follows: Percent increase in life span of p388 murine leukemia cells (inoculated i.p. on day 0) as compared to that of untreated group at 0.125 mg/kg i.p. compound dose on day 1. The class given is functional. The conditions noted are these: Mus musculus, P388, ip, route intraperitoneal.
Experiment [21] can be described thus: Percent tumor growth (TGI) inhibition against S180 murine Sarcoma cells( inoculated s.c. into male ICR mice on day 0), as compared to that of untreated group at 0.5 mg/kg i.v. compound dose on day 1. The class given is functional. The conditions noted are these: Mus musculus, CCRF S-180, route intravenous, read-out: TGI.
Experiment [22] has as its system P388. The experiment is described as follows: Percent increase in life span of p388 murine leukemia cells (inoculated i.p. on day 0) as compared to that of untreated group at 0.25 mg/kg i.p. compound dose on day 1; cured mice= 2/2. Format: functional. The conditions noted are these: Mus musculus, P388, ip, route intraperitoneal.
Experiment [23] concerns Colon 26. The experiment is described as follows: Antitumor activity against colon 26 murine adenocarcinoma cells expressed as % body weight change at 0.707 mg/kg compound dose from day 7 to day 12. Format: functional, Mus musculus.
The subject of experiment [24] is Colon 26. The experiment is described as follows: Antitumor activity against colon 26 murine adenocarcinoma cells expressed as maximum dose within 10% body weight loss at 0.707 mg/kg i.v. compound dose. The conditions noted are these: route intravenous. The class given is functional, Mus musculus.
The test system of experiment [25] is Colon 26. The experiment is described as follows: Antitumor activity against colon 26 murine adenocarcinoma cells expressed as percent TGI (tumor growth inhibition) at 0.707 mg/kg i.v. compound dose. The class given is functional. The conditions noted are these: Mus musculus, route intravenous, read-out: TGI.
For experiment [26], the system named is Colon 26. Nature of the experiment: Antitumor activity against colon 26 murine adenocarcinoma cells expressed as percent TGI 50 (tumor growth inhibition) at 0.707 mg/kg i.v. compound dose. The class given is functional, Mus musculus. The conditions noted are these: route intravenous.

With `COC(=O)c1c(C(F)(F)F)[nH]c2c(OC(=O)N3CCN(C)CC3)cc3c(c12)[C@H](CBr)CN3C(=O)c1cc2cc(OC)c(OC)c(OC)c2[nH]1`, the inhibition in vivo at 0.5 mg/kg in the experiment on Colon 26 [1] came to 93%. Further, the “Change in body weight” value with Colon 26 [2] is given as 5%; with Colon 26 [4], 1%; in the experiment on Colon 26 [8], 8%; in the experiment on Colon 26 [10], 2%. Besides, the inhibition in vivo at 0.25 mg/kg in the experiment on Colon 26 [3] was 90%. The inhibition in vivo at 0.125 mg/kg with Colon 26 [5] came out at 76%. The “MTD/ TGI50” value in the experiment with Colon 26 [6] was 11.7. In the experiment with HeLa, this compound had a half-inhibitory concentration (IC50) of 18.8 ng/mL (≈ 25 nM). The compound also gave a TGI50 with Colon 26 [7] of 0.0429. For the same compound, the inhibition in vivo at 0.0625 mg/kg in the experiment on Colon 26 [9] amounted to 58%.

For `COC(=O)c1c(C(F)(F)F)[nH]c2c1C13CC1CN(C(=O)c1cc4cc(NC(=O)c5cc6ccccc6o5)ccc4[nH]1)C3=CC2=O` (racemic), in experiment [11], the inhibition in vivo at 0.25 mg/kg was 83%. The inhibition in vivo at 0.177 mg/kg in the experiment on Colon 26 [12] was 85%. The “Change in body weight” value is recorded as -4% with Colon 26 [4], -3% with Colon 26 [13], 0% in the experiment with Colon 26 [16] and -3% with Colon 26 [10]. Moreover, the inhibition in vivo at 0.125 mg/kg in the experiment with Colon 26 [5] turned out to be 87%. Also, the IC50 with HeLa stood at 0.365 ng/mL (≈ 0.594 nM); with P388 [18], 0.53 ng/mL (≈ 0.862 nM). Besides, the inhibition in vivo at 0.0313 mg/kg in the experiment with Colon 26 [14] was 39%. Besides, the inhibition in vivo at 0.0625 mg/kg in the experiment with Colon 26 [9] is 68%. Besides, the TGI50 with Colon 26 [15] came out at 0.041. In addition, in the experiment on Colon 26 [17], the “MTD/ TGI50” value came out at 4.3. The compound also had an ILS at 0.25 mg/kg with P388 [19] of 2%.

In the experiment on P388 [20], `COC(=O)c1c(C(F)(F)F)[nH]c2c1C13CC1CN(C(=O)c1cc4cc(OC)c(OC)c(OC)c4[nH]1)C3=CC2=O` (racemic) displayed an ILS at 0.125 mg/kg of 94%. In addition, in the experiment on P388 [18], it took 0.24 ng/mL (≈ 0.44 nM) to reach half-maximal inhibition (IC50). Besides, the inhibition in vivo at 0.5 mg/kg in [21] came to 92%.

`COC(=O)c1[nH]c2c(c1C(=O)OC)C13CC1CN(C(=O)c1cc4cc(NC(=O)c5cc6ccccc6o5)ccc4[nH]1)C3=CC2=O` (racemic): the increase in lifespan (ILS) at 0.125 mg/kg in the experiment with P388 [20] is 79%. In the experiment with P388 [18], it took 0.66 ng/mL (≈ 1.09 nM) to reach half-maximal inhibition (IC50). Moreover, the inhibition in vivo at 0.5 mg/kg in experiment [21] was determined as 26%.

On to `COC(=O)c1c(C(F)(F)F)[nH]c2c1C13CC1CN(C(=O)c1cc4cc(NC(=O)c5cc6ccccc6[nH]5)ccc4[nH]1)C3=CC2=O` (racemic), for which the inhibition in vivo at 0.25 mg/kg in [11] was 84%. This compound had an IC50 in the experiment with P388 [18] of 0.86 ng/mL (≈ 1.4 nM). The compound further displayed an increase in life span (ILS) at 0.25 mg/kg in the experiment with P388 [22] of 2%.

Turning to `COC(=O)c1c(C(F)(F)F)[nH]c2c1C13CC1CN(C(=O)c1cc4cc(OC)ccc4[nH]1)C3=CC2=O` (racemic), the inhibition in vivo at 0.25 mg/kg in [11] was determined as 54%. For the same compound, the ILS at 0.125 mg/kg in the experiment with P388 [20] was 69%. This compound also showed an IC50 in the experiment with P388 [18] of 0.23 ng/mL (≈ 0.474 nM).

Compound `COC(=O)c1c(C)[nH]c2c1[C@@]13C[C@@H]1CN(C(=O)c1cc4cc(OC)c(OC)c(OC)c4[nH]1)C3=CC2=O` (racemic) displayed an ILS at 0.125 mg/kg with P388 [20] of 80%. This compound also yielded an IC50 in the experiment with P388 [18] of 0.34 ng/mL (≈ 0.692 nM). Moreover, the inhibition in vivo at 0.5 mg/kg in [21] is 81%.

Compound `COC(=O)c1[nH]c2c(c1C(=O)OC)C13CC1CN(C(=O)c1cc4cc(NC(=O)c5cc6ccccc6[nH]5)ccc4[nH]1)C3=CC2=O` (racemic) registered an ILS at 0.125 mg/kg in the experiment with P388 [20] of 102%. In addition, the IC50 in the experiment with P388 [18] stood at 0.31 ng/mL (≈ 0.514 nM). Besides, the inhibition in vivo at 0.5 mg/kg in experiment [21] amounted to 44%.

Turning to `COC(=O)c1c(C)[nH]c2c(OC(=O)N3CCN(C)CC3)cc3c(c12)[C@H](CBr)CN3C(=O)c1cc2cc(OC)c(OC)c(OC)c2[nH]1` [PIBROZELESIN], the inhibition in vivo at 0.5 mg/kg in the experiment with Colon 26 [1] was determined as 85%. The Change in body weight is -2% with Colon 26 [2], -9% in the experiment with Colon 26 [23], 1% with Colon 26 [4] and -1% in the experiment on Colon 26 [8]. Moreover, the inhibition in vivo at 0.25 mg/kg in the experiment with Colon 26 [3] was found to be 62%. Also, the inhibition in vivo at 0.125 mg/kg in the experiment on Colon 26 [5] worked out at 26%. In the experiment with HeLa, this compound came in with an IC50 of 18.1 ng/mL (≈ 25.9 nM). For the same compound, the “MTD/ TGI50” value in the experiment with Colon 26 [24] turned out to be 3.4. Further, in the experiment on Colon 26 [25], the inhibition in vivo at 0.707 mg/kg came out at 90%. This compound also registered a TGI50 with Colon 26 [26] of 0.209 mg/kg.
